Test results: patent US11464777B2, “Pharmaceutical composition for the treatment of pulmonary arterial hypertension” (Actelion Pharmaceuticals Ltd, priority 2018, dated 2022)

Columns and labels:
[1] = Drug-drug interaction observations
human PXR = target: T1, human PXR (Homo sapiens, UniProt O75469); assay: Activation of human PXR; format: cell-based
T1 sequence (O75469 1-434): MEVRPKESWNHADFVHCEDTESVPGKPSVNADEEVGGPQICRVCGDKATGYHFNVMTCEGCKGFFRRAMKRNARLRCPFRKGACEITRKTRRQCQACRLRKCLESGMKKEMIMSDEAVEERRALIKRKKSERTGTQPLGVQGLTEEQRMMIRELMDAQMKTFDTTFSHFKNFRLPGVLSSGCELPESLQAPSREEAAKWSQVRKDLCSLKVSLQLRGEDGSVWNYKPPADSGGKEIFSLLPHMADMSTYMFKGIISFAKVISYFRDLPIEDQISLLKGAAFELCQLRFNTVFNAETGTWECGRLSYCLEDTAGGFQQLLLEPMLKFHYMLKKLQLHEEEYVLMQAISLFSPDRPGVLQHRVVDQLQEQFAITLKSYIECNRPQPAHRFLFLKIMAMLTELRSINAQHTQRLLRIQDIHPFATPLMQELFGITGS

CYP3A4 = CYP3A4 induction in human hepatocytes; format: in vitro ADME
[2] = cited from earlier work
[3] = test system: ET receptors (ETA and ETB); details: cited from earlier work
BCRP transporters = target: T2, BCRP transporters (Homo sapiens, UniProt Q9UNQ0); assay: Effect on pharmacokinetics of rosuvastatin (BCRP transporters); format: in vivo; details: macitentan 10 mg per day o.d.
T2 construct: BCRP is an efflux pump located in the gut, liver canalicular membrane, and kidney; from tissue; host or cells: gut, liver, kidney of dosed subjects (in vivo)
T2 sequence (Q9UNQ0 1-655): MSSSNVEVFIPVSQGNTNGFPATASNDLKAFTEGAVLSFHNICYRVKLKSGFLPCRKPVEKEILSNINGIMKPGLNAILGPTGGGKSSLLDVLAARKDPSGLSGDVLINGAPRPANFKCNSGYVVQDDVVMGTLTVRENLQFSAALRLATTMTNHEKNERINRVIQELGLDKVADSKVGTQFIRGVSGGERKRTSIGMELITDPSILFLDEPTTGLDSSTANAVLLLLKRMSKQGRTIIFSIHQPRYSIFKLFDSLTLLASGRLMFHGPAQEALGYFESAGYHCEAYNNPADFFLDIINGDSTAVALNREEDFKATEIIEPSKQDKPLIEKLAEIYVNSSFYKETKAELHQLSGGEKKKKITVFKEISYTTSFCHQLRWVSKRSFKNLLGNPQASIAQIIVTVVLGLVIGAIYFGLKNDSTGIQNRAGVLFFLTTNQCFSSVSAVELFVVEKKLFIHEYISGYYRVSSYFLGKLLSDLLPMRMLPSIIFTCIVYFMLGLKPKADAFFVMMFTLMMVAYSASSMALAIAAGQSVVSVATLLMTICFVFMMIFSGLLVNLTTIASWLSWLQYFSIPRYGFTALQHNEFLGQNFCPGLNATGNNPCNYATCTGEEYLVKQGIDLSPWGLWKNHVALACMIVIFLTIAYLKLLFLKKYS
From the text: BCRP is an efflux pump located in the gut, liver canalicular membrane, and kidney, and is exposed to intracellular drug concentrations in the liver and the kidney.

[4] = Effect of macitentan on decrease in hemoglobin concentration, pooled Phase I studies, Emax model; format: in vivo, human; details: healthy volunteers
From the text: Hemoglobin measurements were pooled from 3 Phase I clinical studies in healthy volunteers:
Study AC-055-102: Investigation of the PK, PD, safety and tolerability of macitentan in male subjects (the study protocol is described in the following publication: Sidharta et al., Safety, tolerability, pharmacokinetics, and pharmacodynamics of macitentan, an endothelin receptor antagonist, in an ascending multiple-dose study in healthy subjects. J. Clin. Pharmacol. (2013), 53(11),1131-1138)
Study AC-055-116: Investigation of the PK, PD, safety and tolerability of macitentan in male Japanese subjects (the study protocol is described in the following publication: Yokoyama et al., Tolerability, Safety, Pharmacokinetics, and Pharmacodynamics of Macitentan, a New Endothelin Receptor Antagonist, in Healthy Japanese Male Subjects. Rinsho yakuri/Japanese Journal of Clinical Pharmacology and Therapeutics (2016), 47, 143-150) […]
Hemoglobin concentrations measured in the morning of Day 11 of macitentan treatment and at baseline on Day −1 were used in the analysis. […]

rats = details: cited from earlier work
plasma ET-1 = details: healthy human subjects, 1, 3, 10 and 30 mg; cited from earlier work

EC50 (human PXR) | CYP3A4 mRNA and enzyme activity (CYP3A4) | effect on the pharmacokinetics of 1 mg rosuvastatin (BCRP transporters) | dose at which effect on hemoglobin decrease plateaus ([4]; Day 11 vs baseline Day -1) | maximum effect on hemoglobin decrease (Emax) ([4]; Day 11 vs baseline Day -1, nonlinear regression) | SMILES | Drug-Drug Interaction [1] | time to peak plasma concentration ([2]; after the first dose of macitentan) | half-life in humans ([2]; humans) | plasma concentrations relative to macitentan ([2]; humans) | affinity for the ET receptors relative to parent compound [3] | time to steady state ([2]; humans, repeated administration) | absorption into the plasma ([2]; humans) | dose of maximal or near-maximal effect in rats (rats; EMA Assessment Report) | maximal effective dose in rats (rats; Iglarz 2014, Kunita-Takanezawa 2014) | plasma ET-1 concentrations at steady-state (plasma ET-1)
7.2 to 8.7 µM | concentration-dependent increases | – | – | – | NS(=O)(=O)Nc1ncnc(OCCOc2ncc(Br)cn2)c1-c1ccc(Br)cc1 [ACT-132577] | No Drug-Drug Interaction has been observed | about 30 hours | approximately 48 hours | higher plasma concentrations than macitentan | lower affinity | – | – | – | – | –
1.1 to 1.2 µM | concentration-dependent increases | has not shown any effect | 10 mg | around 1.23 g/dL | CCCNS(=O)(=O)Nc1ncnc(OCCOc2ncc(Br)cn2)c1-c1ccc(Br)cc1 [macitentan, propylsulfamic acid [5-(4-bromo-phenyl)-6-[2-(5-bromo-pyrimidin-2-yloxy)-ethoxy]-pyrimidin-4-yl]-amide] | No Drug-Drug Interaction has been observed | – | about 16 hours | – | – | steady state is reached by the third day of administration | absorbed slowly | 10 mg/kg | 30 mg/kg | dose-dependent increase, with no further increase beyond the 10 mg oral dose
